Values quoted from earlier work, collected in paper PMC2978073 (Journal of medicinal chemistry, 2010).

What was measured:
[1] = test system: rabbit model for cerebral palsy
[2] = compared with 3

bioavailability [2] | Structure (SMILES) | effect on eNOS-regulated blood pressure [1] | hypoxia-ischemia induced death [1] | number of newborn kits exhibiting cerebral palsy phenotype [1]
– | Cc1cc(N)nc(C[C@H]2CNC[C@H]2NCCNCc2ccc(Cl)cc2)c1 (racemic) [(±)-2] | without affecting eNOS-regulated blood pressure | prevent hypoxia-ischemia induced death | reduce the number of newborn kits exhibiting cerebral palsy phenotype
– | Cc1cc(N)nc(C[C@H]2CNC[C@H]2NCCNCCc2cccc(F)c2)c1 (racemic) [(±)-3] | without affecting eNOS-regulated blood pressure | prevent hypoxia-ischemia induced death | reduce the number of newborn kits exhibiting cerebral palsy phenotype
improved bioavailability | Cc1cc(N)nc(C[C@H]2CNC[C@H]2OCCNCCc2cccc(F)c2)c1 (racemic) [(±)-4] | – | – | –
